Experimental data: article PMC4838876, “Multivalent display of minimal Clostridium difficile glycan epitopes mimics antigenic properties of larger glycans” (Nature Communications, 2016)

Test system: mAb 10A1
Experiment: Isothermal titration calorimetry (ITC)
Assay type: binding, mouse
Description: Figure 7 IM and thermodynamic analysis of glycan–mAb interactions and conformation of 1. (a) IM analysis. The heat maps represent on- and off-rates of mAb 2C5 to 1 (upper) and 3 (lower). (b) Thermograms acquired using 7 μM of mAb 2C5 and titrating 250 μM of 1 (left) or 3 mM of 3 (right) at 25 °C. Thermodynamic parameters were inferred by nonlinear least-square fits of the data points. (c) Summary of thermodynamic parameters for 1 and 3 interacting with mAbs 2C5 and 10A1. Bars represent mean±s.e.m. of two independent measurements. See Supplementary Fig. 6 for details. (d) One-dimensional proton NMR spectrum, and 2D zTOCSY and NOE spectroscopy (NOESY) NMR spectra of 1 showing the coupled protons to the anomeric protons of the five residues with numbering according to the structure shown in e. Blue circles mark cross-peaks that appear in the NOESY spectrum, whereas not showing a corresponding peak in the zTOCSY. These peaks were marked as inter-residue NOEs and labelled by residue number and proton name. […]
Assuming that 1 had more interactions with the binding pockets, association with 1 would liberate more water molecules during complex formation than 3, thereby producing a more favourable entropy. To investigate this, thermodynamic parameters of mAb interactions with 1 and 3 were measured by ITC (Fig. 7b). […]

With C[C@@H]1O[C@@H](O[C@@H]2[C@@H](O)[C@H](O[C@H]3[C@H](O[C@@H]4O[C@@H](C)[C@H](O)[C@@H](O)[C@H]4O)[C@@H](O)[C@@H](O[C@H]4[C@@H](OCCCCCN)O[C@H](CO)[C@@H](O)[C@@H]4O)O[C@@H]3CO)O[C@H](CO)[C@H]2O)[C@H](O)[C@H](O)[C@H]1O [Compound 1] the binding stoichiometry was 2.6.
